ChEMBL document CHEMBL2069279, “Target fishing and docking studies of the novel derivatives of aryl-aminopyridines with potential anticancer activity” (Bioorg Med Chem, 2012)

Experiments:
[1] = tested on: PBMC; assay: Cytotoxicity against human PBMC cells in absence of phytohemagglutinin after 72 hrs by MTT assay; assay type: cell-based
[2] = tested on: PBMC; assay: Cytotoxicity against human PBMC cells in presence of phytohemagglutinin after 72 hrs by MTT assay; assay type: cell-based
[3] = tested on: HeLa; assay: Cytotoxicity against human HeLa cells after 72 hrs by MTT assay; assay type: functional, cell-based
[4] = Cytotoxicity against human Fem-X cells after 72 hrs by MTT assay; assay type: functional, cell-based
[5] = tested on: K562; assay: Cytotoxicity against human K562 cells after 72 hrs by MTT assay; assay type: functional, cell-based; details: K562, 72 h
[6] = Homo sapiens, HeLa, 72 h, read-out: IC50

Structure (SMILES) | IC50 [1] [µM] | IC50 [2] [µM] | IC50 [3, 6] [µM] | IC50 [4] [µM] | IC50 [5] [µM] | IC50 ([3]; hela)
COc1ccc(Nc2ccc3ccccc3n2)cc1 | 91 | 70 | 51 | 43 | 30 | –
COc1ccc(Nc2cc(-c3ccc(C)cc3)ccn2)cc1 | 52 | 34 | 43 | 33 | 19 | –
COc1ccc(Nc2cc(-c3cccc(C(F)(F)F)c3)ccn2)cc1 | 132 | 105 | 140 | 68 | 78 | –
CCc1ccc(Nc2cc(-c3cccc(C(F)(F)F)c3)ccn2)cc1 | – | – | > 200 | > 200 | – | –
COc1cccc(Nc2cc(-c3cccc(C(F)(F)F)c3)ccn2)c1 | – | – | > 200 | > 200 | – | –
COc1ccc(Nc2ccccn2)cc1 | 46 | 42 | 117 | 123 | 63 | –
COc1ccc(Nc2cccnc2)cc1 | 96 | 183 | 145 | 118 | 68 | –
Cc1ccc(-c2ccnc(Nc3ccc(F)cc3)c2)cc1 | 127 | 146 | 146 | 79 | 54 | –
Fc1ccc(Nc2ccc3ccccc3n2)cc1 | 90 | 65 | 33 | 35 | 36 | –
COc1ccc(Nc2nc3ccccc3cc2-c2ccc(C)cc2)cc1 | 137 | 118 | 102 | 65 | 75 | –
COc1ccc(Nc2c(-c3ccc(OC)cc3)cnc3ccccc23)cc1 | 122 | 105 | 104 | 56 | 25 | –
COc1ccc(Nc2c(-c3ccccc3)cnc3ccccc23)cc1 | 72 | 62 | 64 | 35 | 25 | –
COc1cccc(Nc2nc3ccccc3cc2-c2ccccc2)c1 | 119 | 81 | – | 129 | 76 | ND(toxic)
CCc1ccc(Nc2nc3ccccc3cc2-c2ccccc2)cc1 | 73 | 66 | 140 | 92 | 99 | –
